ChEMBL document CHEMBL1201862, “PubChem BioAssay data set” (2004)
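Cells were grown in 96-well plates and exposed to each compound for 48 hours at five concentrations; endpoints were interpolated linearly between bracketing concentrations, or set to the highest concentration if not reached. GI50: concentration for 50% inhibition of growth.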 Calls of active or inactive are those of the source. Cut-off read from the data, not from the text of the source: active = GI50 up to about 1.1 µM and inactive = higher.

Experiments:
Experiment in all cases: NCI tumour cell line growth inhibition, 48 h
KM12 = tested on: KM12
OVCAR-8 = tested on: OVCAR-8
SK-MEL-28 = tested on: SK-MEL-28

Measured: GI50

CN(C)CCCNC(=O)c1cccc2ccccc12
inactive: KM12 > 100 µM | OVCAR-8 > 100 µM | SK-MEL-28 > 100 µM
